Data on 11 compounds can be found in patent US11964988B2, “Fused heterocyclic compounds as RET kinase inhibitors” (ARRAY BIOPHARMA INC., priority 2018, dated 2024).

Substitutions are numbered along the chain they refer to.

Assay [1] concerns the target T1, HEK-293 cells expressing a G810S mutant RET Kif5b-RET fusion protein (Homo sapiens, UniProt P07949, G810S).
T1 construct: KIF5B (N-terminal portion incl. coiled-coil); expressed in transfected cells; host or cells: HEK-293
T1 sequence (P07949 713-1063 G810S limits assumed): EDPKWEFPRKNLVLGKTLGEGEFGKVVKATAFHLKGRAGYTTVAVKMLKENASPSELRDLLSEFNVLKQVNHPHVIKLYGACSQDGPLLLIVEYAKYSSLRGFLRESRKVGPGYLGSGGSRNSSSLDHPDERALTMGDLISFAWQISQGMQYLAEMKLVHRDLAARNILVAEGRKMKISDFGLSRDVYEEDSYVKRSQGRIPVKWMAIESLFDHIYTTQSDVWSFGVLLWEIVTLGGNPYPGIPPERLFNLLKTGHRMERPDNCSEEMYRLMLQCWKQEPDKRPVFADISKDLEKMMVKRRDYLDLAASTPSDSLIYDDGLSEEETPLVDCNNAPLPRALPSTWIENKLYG
The experiment in a line: RET G810S Mutant Cell Assay (phospho-RET Tyr1062). It is filed as cell-based. Conditions: HEK-293 Kif5b-RET G810S, 1 hour incubation, phospho-RET normalized to GAPDH. As for the experimental part:
(§1) The cellular potency of compounds inhibiting RET kinase were determined in HEK-293 cells expressing a G810R or G810S mutant RET Kif5b-RET fusion protein. Briefly, HEK-293 cells expressing a G810R or G810S mutant RET Kif5b-RET fusion protein were plated at 50K cells/well in 96 well poly-D-Lysine coated plates the day prior to the assay. The cells were incubated for 1 hour with test compound in DMEM (Dulbecco's Modified Eagle Medium) at a final DMSO concentration of 0.5%. […] After 1 hour the media was removed, the cells were fixed with 3.8% formaldehyde for 20 min, washed with PBS, and permeabilized for 10 min with 100% methanol. The plates were then washed with PBS-0.05% Tween20, and blocked with LI-COR Blocking solution (LI-COR Catalog No. 927-40000) for 1 hour. Plates were washed with PBS-0.05% Tween20, then incubated with anti-phospho-RET (Tyr1062) (Santa Cruz Catalog No. sc-20252-R) antibody and anti-GAPDH (Millipore Catalog No. MAB374) antibody for 2 hours. The plates were washed with PBS-0.05% Tween20, and incubated with anti-rabbit 680 (Molecular Probes Catalog No. A21109) and anti-mouse 800 (LI-COR Catalog No. 926-32210) secondary antibodies for 1 hour. All antibodies were diluted in LI-COR Block containing 0.05% Tween. The plates were washed with PBS-0.05% Tween20,100 μL PBS was added to each well, and the plates were read on a LI-COR Aerius fluorescent plate reader. The phospho-RET signal was normalized to the GAPDH signal. […] The POC values are fit to a 4 parameter logistic curve. The IC50 value is the point where the curve crosses 50 POC.

Another assay concerns the target RET kinase V804M (Homo sapiens, UniProt P07949, V804M). The assay can be described thus: RET Enzyme Assay (CisBio HTRF KinEASE-TK), V804M. It is filed as biochemical. Conditions: read-out: RET V804M Enz FRET IC50. A general note: Time-resolved FRET reads energy transfer from a long-lived donor to a nearby acceptor.
For the next assay, the target named is RET kinase Wild Type (Homo sapiens, UniProt P07949). The experiment in a line: biochemical.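 Also: HTRF kinase activity assay on RET enzyme, 1 h reaction at 22 °C, dual-wavelength readout as percent of control, DMSO-only wells as 100%, pre-quenched reactions as 0%.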
Sequence of RET kinase Wild Type (P07949 29-1114): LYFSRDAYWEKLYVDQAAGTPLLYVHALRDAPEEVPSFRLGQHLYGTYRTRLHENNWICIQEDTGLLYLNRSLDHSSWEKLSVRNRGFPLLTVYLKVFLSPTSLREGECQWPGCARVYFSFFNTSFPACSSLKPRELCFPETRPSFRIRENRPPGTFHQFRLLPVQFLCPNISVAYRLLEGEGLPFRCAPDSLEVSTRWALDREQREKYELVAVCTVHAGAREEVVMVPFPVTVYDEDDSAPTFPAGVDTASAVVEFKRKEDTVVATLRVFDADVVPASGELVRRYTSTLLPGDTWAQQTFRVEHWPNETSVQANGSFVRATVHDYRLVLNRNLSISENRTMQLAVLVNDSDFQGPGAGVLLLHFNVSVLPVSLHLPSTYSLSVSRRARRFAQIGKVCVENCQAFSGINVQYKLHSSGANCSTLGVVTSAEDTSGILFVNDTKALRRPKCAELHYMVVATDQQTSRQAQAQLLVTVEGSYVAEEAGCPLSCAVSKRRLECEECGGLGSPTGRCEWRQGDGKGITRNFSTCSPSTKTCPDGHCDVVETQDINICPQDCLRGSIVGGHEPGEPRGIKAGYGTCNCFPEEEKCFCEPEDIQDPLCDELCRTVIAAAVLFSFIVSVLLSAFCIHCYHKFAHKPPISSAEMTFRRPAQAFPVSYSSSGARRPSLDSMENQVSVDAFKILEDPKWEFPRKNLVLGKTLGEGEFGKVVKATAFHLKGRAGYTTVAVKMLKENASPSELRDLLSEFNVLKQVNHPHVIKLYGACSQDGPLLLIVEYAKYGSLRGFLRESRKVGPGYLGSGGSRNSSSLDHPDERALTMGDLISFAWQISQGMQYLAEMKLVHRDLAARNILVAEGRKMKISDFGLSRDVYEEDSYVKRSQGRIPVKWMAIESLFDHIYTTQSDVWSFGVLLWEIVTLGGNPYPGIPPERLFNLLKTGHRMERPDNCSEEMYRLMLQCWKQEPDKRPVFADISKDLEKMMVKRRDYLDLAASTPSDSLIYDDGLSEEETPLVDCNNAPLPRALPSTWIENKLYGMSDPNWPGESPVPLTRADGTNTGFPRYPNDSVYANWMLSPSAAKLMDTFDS
For another assay, the target named is G810S mutant RET kinase (Homo sapiens, UniProt P07949, G810S). The experiment in a line: biochemical.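 Also: HTRF KinEASE-TK kinase assay with recombinant enzyme, 1 h at 22 °C, dual-wavelength ratiometric read-out, percent of control (DMSO-only = 100, pre-quenched reaction = 0).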
Sequence of G810S mutant RET kinase (P07949 29-1114 G810S): as the sequence (P07949 29-1114) above, with G782S counted along it
Assay [2] has as its target T2, HEK-293 cells expressing a G810R mutant RET Kif5b-RET fusion protein (Homo sapiens, UniProt P07949, G810R).
T2 construct: KIF5B (N-terminal portion incl. coiled-coil); expressed in transfected cells; host or cells: HEK-293; the other entry of the earlier key: KIF5B (P33176, Kinesin-1 heavy chain)
T2 sequence (P07949 713-1063 G810R limits assumed): T1 sequence (P07949 713-1063 G810S limits assumed) with S98R
The experiment in a line: RET G810R Mutant Cell Assay (phospho-RET Tyr1062). The settings on record: HEK-293 Kif5b-RET G810R, 1 hour incubation, phospho-RET normalized to GAPDH. It is filed as cell-based. As for the experimental part: as §1

The target in the next assay is G810R mutant RET kinase (Homo sapiens, UniProt P07949, G810R). The experiment in a line: biochemical.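 Also: HTRF KinEASE-TK enzymatic assay with 1 nM recombinant RET G810R, 1 h at 22 °C, dual-wavelength ratiometric readout, 100% control without compound, 0% from pre-quenched reactions.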
Sequence of G810R mutant RET kinase (P07949 29-1114 G810R): as the sequence (P07949 29-1114) above, with G782R counted along it
Assay [3] concerns the target T3, HEK-293 cells expressing a Kif5b-RET fusion protein (Homo sapiens, UniProt P07949).
T3 construct: KIF5B (N-terminal portion incl. coiled-coil); expressed in transfected cells; host or cells: HEK-293; the other entry of the earlier key: KIF5B (P33176, Kinesin-1 heavy chain)
T3 sequence (P07949 713-1063 limits assumed): T1 sequence (P07949 713-1063 G810S limits assumed) with S98G
The experiment in a line: RET Cell Assay (phospho-RET Tyr1062). In kind it is cell-based. The settings on record: HEK-293 Kif5b-RET, 1 hour incubation, phospho-RET normalized to GAPDH; read-out: KIF5B-RET pTYR1062 Cell IC50. In a few lines:
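Kif5b-RET HEK-293 cells treated 1 hour with compound in DMEM (0.5% DMSO final), then fixed and immunostained for phospho-RET Tyr1062, normalized to GAPDH by infrared fluorescence. IC50 where the 4-parameter logistic fit of POC crosses 50.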

Sequence of RET kinase V804M (P07949 29-1114 V804M): as the sequence (P07949 29-1114) above, with V776M counted along it
Protocol for RET kinase V804M: The potency of compounds inhibiting several different RET kinase forms (Wild Type, V804M, G810R, & G810S) were determined using CisBio's HTRF® KinEASE™-TK assay technology. […] After a 1 hour incubation at 22° C., the extent of reaction was determined using a PerkinElmer EnVision multimode plate reader via HTRF dual wavelength detection, and the percent of control (POC) was calculated using a ratiometric emission factor. One hundred POC was determined using DMSO only samples (no compound present), and 0 POC was determined using pre-quenched control reactions.

Broadly, the IC50 is the point on the concentration scale where inhibition reaches its midpoint. As to `COC(=O)c1ccc2c(Cl)c3n(c2c1)C(=O)NCc1c-3c2c(N)ncnc2n1C(C)C` [Example 75, Methyl 1-amino-14-chloro-5-isopropyl-8-oxo-5,6,7,8-tetrahydropyrimido[5″,4″:4′,5′]pyrrolo[2′,3′:5,6][1,3]diazepino[1,7-a]indole-11-carboxylate], the IC50 came to 0.191 µM in assay [1]; 2.03 µM at RET kinase V804M; 0.082 µM against RET kinase Wild Type; 0.051 µM against G810S mutant RET kinase; 0.17 µM in assay [2]; 0.421 µM at G810R mutant RET kinase.

In the case of `CC(C)n1c2c(c3c(N)ncnc31)-c1cc3ccc(C#N)cc3n1C(=O)NC2` [Example 76, 1-amino-5-isopropyl-8-oxo-5,6,7,8-tetrahydropyrimido[5″,4″:4′,5′]pyrrolo[2′,3′:5,6][1,3]diazepino[1,7-a]indole-11-carbonitrile], the IC50 in assay [1] is 0.57 µM; in assay [3], 0.143 µM; at RET kinase Wild Type, 0.117 µM; at G810S mutant RET kinase, 0.292 µM; in assay [2] it was 0.845 µM; against G810R mutant RET kinase, 0.118 µM.

As to `Nc1ncnc2c1c1c(n2-c2ccccc2)CNC(=O)c2c-1noc2C1CC1` [Example 110, 11-amino-3-cyclopropyl-7-phenyl-6,7-dihydroisoxazolo[4,3-c]pyrimido[5′,4′:4,5]pyrrolo[3,2-e]azepin-4(5H)-one 2,2,2-trifluoroacetate], the IC50 in assay [1] was determined as 0.201 µM; on RET kinase V804M, 1.74 µM; against RET kinase Wild Type it was 0.411 µM; on G810S mutant RET kinase it was 0.284 µM; in assay [2], 0.537 µM; on G810R mutant RET kinase, 0.214 µM.

Turning to `COCCn1ccc(NC(=O)c2ccc3cc4n(c3c2)CCCc2c-4c3c(N)ncnc3n2C(C)C)n1` [Example 96, 1-amino-5-isopropyl-N-(1-(2-methoxyethyl)-1H-pyrazol-3-yl)-5,6,7,8-tetrahydropyrimido[5″,4″:4′,5′]pyrrolo[3′,2′: 3,4]azepino[1,2-a]indole-11-carboxamide], the IC50 in assay [1] came to 0.116 µM; in assay [3], 0.085 µM; at RET kinase Wild Type, 0.027 µM; against G810S mutant RET kinase, 0.393 µM; in assay [2], 0.142 µM; at G810R mutant RET kinase, 0.187 µM.

`CC(=O)Nc1ccc2cc3n(c2c1)CCCc1c-3c2c(N)ncnc2n1C(C)C` [Example 139, N-(1-amino-5-isopropyl-5,6,7,8-tetrahydropyrimido[5″,4″:4′,5′]pyrrolo[3′,2′:3,4]azepino[1,2-a]indol-11-yl)acetamide]: the IC50 in assay [1] was 0.036 µM; in assay [3] it was 0.016 µM; on RET kinase Wild Type, 0.075 µM; on G810S mutant RET kinase it was 0.474 µM; in assay [2], 0.049 µM; on G810R mutant RET kinase, 1.03 µM.

Take `CNC(=O)c1ccc2c(Cl)c3n(c2c1)C(=O)NCc1c-3c2c(N)ncnc2n1C(C)C` [Example 74, 1-Amino-14-chloro-5-isopropyl-N-methyl-8-oxo-5,6,7,8-tetrahydropyrimido[5″,4″:4′,5′]pyrrolo[2′,3′:5,6][1,3]diazepino[1,7-a]indole-11-carboxamide]: the IC50 was found to be 0.918 µM in assay [1]; 6 µM at RET kinase V804M; 0.353 µM against RET kinase Wild Type; 0.289 µM against G810S mutant RET kinase; 2.94 µM in assay [2]; 2.08 µM against G810R mutant RET kinase.

For `COC(=O)c1ccc2cc3n(c2c1)C(=O)NCc1c-3c2c(N)ncnc2n1C(C)C` [Example 70, Methyl 1-amino-5-isopropyl-8-oxo-5,6,7,8-tetrahydropyrimido[5″,4″:4′,5′]pyrrolo[2′,3′:5,6][1,3]diazepino[1,7-a]indole-11-carboxylate], the IC50 amounted to 0.388 µM in assay [1]; 0.166 µM in assay [3]; 0.092 µM against RET kinase Wild Type; 0.312 µM against G810S mutant RET kinase; 0.607 µM in assay [2]; 0.183 µM at G810R mutant RET kinase.

`CC(C)n1c2c(c3c(N)ncnc31)-c1cc3ccc(C(=O)NC4CC4)cc3n1C(=O)NC2` [Example 72, 1-amino-N-cyclopropyl-5-isopropyl-8-oxo-5,6,7,8-tetrahydropyrimido[5″,4″:4′,5′]pyrrolo[2′,3′:5,6][1,3]diazepino[1,7-a]indole-11-carboxamide]: the IC50 worked out at 6.35 µM in assay [1]; 3.96 µM in assay [3]; 0.512 µM against RET kinase Wild Type; 2.63 µM against G810S mutant RET kinase; 16.2 µM in assay [2]; 3.09 µM at G810R mutant RET kinase.

As for `CC(C)n1c2c(c3c(N)ncnc31)-c1cc3ccc(C(=O)Nc4ccn(CCC(F)(F)F)n4)cc3n1CCC2` [Example 101, 1-amino-5-isopropyl-N-(1-(3,3,3-trifluoropropyl)-1H-pyrazol-3-yl)-5,6,7,8-tetrahydropyrimido[5″,4″:4′,5′]pyrrolo[3′,2′: 3,4]azepino[1,2-a]indole-11-carboxamide], the IC50 in assay [1] was 0.062 µM; in assay [3] it was 0.043 µM; on RET kinase Wild Type it was 0.135 µM; on G810S mutant RET kinase it was 0.805 µM; in assay [2], 0.075 µM; on G810R mutant RET kinase it was 1.42 µM.

Turning to `CC(C)n1c2c(c3c(N)ncnc31)-c1cc3cc(Cl)ccc3n1C(=O)NC2` [Example 77, 1-amino-12-chloro-5-isopropyl-6,7-dihydropyrimido[5″,4″:4′,5′]pyrrolo[2′,3′: 5,6][1,3]diazepino[1,7-a]indol-8(5H)-one], the IC50 in assay [1] amounted to 0.032 µM; in assay [3], 0.013 µM; at RET kinase Wild Type, 0.027 µM; at G810S mutant RET kinase, 0.073 µM; in assay [2] it was 0.089 µM; against G810R mutant RET kinase, 0.135 µM.

As to `CC(C)n1c2c(c3c(N)ncnc31)-c1cc3c(F)cccc3n1C(=O)NC2` [Example 83, 1-amino-13-fluoro-5-isopropyl-6,7-dihydropyrimido[5″,4″:4′,5′]pyrrolo[2′,3′: 5,6][1,3]diazepino[1,7-a]indol-8(5H)-one], the IC50 in assay [1] worked out at 0.812 µM; in assay [3], 0.293 µM; on RET kinase Wild Type it was 0.063 µM; at G810S mutant RET kinase, 0.097 µM; in assay [2] it was 1.06 µM; at G810R mutant RET kinase, 0.058 µM.
